Assay results taken from patent publication US9546176B2, “Small molecule bicyclic and tricyclic CFTR correctors” (DISCOVERYBIOMED, INC., priority 2012, dated 2017).

Target: T1, delF508-CFTR (Homo sapiens, UniProt P13569, DEL508-508)
T1 construct: endogenous in cells; host or cells: CFBE41o- human CF bronchial epithelial cells (delF508 homozygous)
Assay: SPQ halide-sensitive fluorescence dye assay for rescue of halide efflux (8-point concentration-response)
Format: cell-based
Settings: for ΔSPQ (difference between maximum and minimum SPQ values) / EC50: CFBE41o- cells, 48 h; for EC50: read-out: SPQ EC50
Procedure: The method of profiling can include detecting the rescue of halide efflux from a cell. The step of detecting a rescue of halide efflux from the cell can be monitored using the halide quenched dye 6-methoxy-N-(3-sulfopropyl)-quinolinium (SPQ, Molecular Probes Inc., Eugene, Oreg.). In this method, cells are treated with a compound as described herein for a period of time (e.g., 48 hours). The rescue or correction of halide efflux is then detected using the SPQ assay with the halide dye. […] Optionally, the halide efflux is chloride efflux. The method of screening can further comprise performing the method with multiple concentrations of the compound.
The compounds were initially subjected to the SPQ halide-sensitive fluorescence dye profiling assay for rescue or correction of membrane chloride ion permeability or transport with an 8-point concentration-response curve. The EC50 values for the compounds described herein were determined using SPQ (Table 1). The ΔSPQ value was calculated by determining the difference between the maximum and minimum SPQ values for the compounds.
To perform the SPQ high throughput screening assay, CFBE41o-cells were seeded into 96-well microtiter plates and were loaded with the fluorescent halide-sensitive dye, SPQ, in serum-containing culture medium. Certain wells were loaded with known positive control corrector molecules, including the industry standard Vertex 809 (VX-809; Vertex Pharmaceuticals, Cambridge, Mass.) at 3 μM, which is the maximally effective profiling dose for VX-809. The test compounds were loaded into wells and were tested in triplicate wells at a 10 μM dose and incubated over 48 hours at room temperature. During the 48 hour period, SPQ was absorbed. Plates were washed in a sodium chloride (NaCl) based Ringer and read once over two minutes to set the baseline SPQ fluorescence activity. Then, NaCl was replaced by sodium nitrate (NaNO3) based Ringer. The plates were read twice over four minutes. The primary high throughput screen (HTS) data were analyzed to detect any function of rescued delF508-CFTR under basal conditions. The plate was read up to two times to complete the SPQ HTS assay.

T1 sequence (P13569 with tags, fused parts or gaps DEL508-508): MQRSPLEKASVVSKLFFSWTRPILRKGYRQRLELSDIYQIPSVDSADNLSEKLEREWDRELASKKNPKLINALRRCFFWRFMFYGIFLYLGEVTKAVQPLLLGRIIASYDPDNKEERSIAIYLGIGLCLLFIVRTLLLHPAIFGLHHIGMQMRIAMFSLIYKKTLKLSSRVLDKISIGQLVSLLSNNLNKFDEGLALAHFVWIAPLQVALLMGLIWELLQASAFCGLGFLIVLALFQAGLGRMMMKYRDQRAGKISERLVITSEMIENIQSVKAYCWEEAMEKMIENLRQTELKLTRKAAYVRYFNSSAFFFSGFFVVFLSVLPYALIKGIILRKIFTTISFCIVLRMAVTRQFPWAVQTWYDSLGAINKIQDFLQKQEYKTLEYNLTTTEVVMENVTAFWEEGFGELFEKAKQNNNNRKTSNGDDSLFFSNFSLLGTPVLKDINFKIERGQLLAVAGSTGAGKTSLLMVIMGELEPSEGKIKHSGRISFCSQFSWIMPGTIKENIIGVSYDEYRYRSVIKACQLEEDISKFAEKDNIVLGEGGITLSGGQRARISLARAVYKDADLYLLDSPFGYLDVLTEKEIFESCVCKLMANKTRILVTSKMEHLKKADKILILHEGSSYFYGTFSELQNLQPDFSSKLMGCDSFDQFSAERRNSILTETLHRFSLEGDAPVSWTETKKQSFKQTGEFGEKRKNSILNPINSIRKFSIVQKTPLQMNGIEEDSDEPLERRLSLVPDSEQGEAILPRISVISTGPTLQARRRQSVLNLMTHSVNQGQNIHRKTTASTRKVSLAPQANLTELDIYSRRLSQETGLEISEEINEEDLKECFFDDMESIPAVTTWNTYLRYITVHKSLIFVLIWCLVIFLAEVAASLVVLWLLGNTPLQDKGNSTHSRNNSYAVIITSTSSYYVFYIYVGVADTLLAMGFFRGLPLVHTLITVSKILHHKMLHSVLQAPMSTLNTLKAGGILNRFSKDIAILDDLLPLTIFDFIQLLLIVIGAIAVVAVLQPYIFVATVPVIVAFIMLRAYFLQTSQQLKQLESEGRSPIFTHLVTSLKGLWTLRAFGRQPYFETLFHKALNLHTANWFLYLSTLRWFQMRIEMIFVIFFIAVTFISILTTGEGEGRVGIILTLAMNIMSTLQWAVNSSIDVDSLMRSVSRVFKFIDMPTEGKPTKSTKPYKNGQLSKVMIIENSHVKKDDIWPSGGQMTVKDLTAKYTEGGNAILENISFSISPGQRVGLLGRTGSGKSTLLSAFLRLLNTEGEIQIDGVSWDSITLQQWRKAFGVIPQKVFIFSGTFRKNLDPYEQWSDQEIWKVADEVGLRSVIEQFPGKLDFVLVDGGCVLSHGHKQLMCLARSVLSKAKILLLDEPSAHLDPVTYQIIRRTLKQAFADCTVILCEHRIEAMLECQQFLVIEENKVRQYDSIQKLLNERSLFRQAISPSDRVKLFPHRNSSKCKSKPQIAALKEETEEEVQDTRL

SMILES	ΔSPQ (difference between maximum and minimum SPQ values)	EC50	potency and efficacy compared with VX-809 in SPQ assay (versus VX-809)
CCn1c(=O)c2c(nc3n(-c4ccc(C)cc4)c(C)c(C)n23)n(C)c1=O [Compound I-8]	6975 RFU	3.6 µM	
CCn1c(=O)c2c(nc3n(-c4ccc(C)cc4)c(C)cn23)n(C)c1=O [Compound I-9]	3793 RFU	3.7 µM	
CCn1c(=O)c2c(nc3n(-c4ccccc4)c(C)c(C)n23)n(C)c1=O [Compound I-10]	4005 RFU	4 µM	
Cc1ccc(C)c(Cn2c(=O)c3c(nc4[nH]c(C)c(C)n43)n(C)c2=O)c1 [Compound I-11]	3705 RFU	> 30 µM	
CCCn1c(C)cn2c3c(=O)n(Cc4ccccc4)c(=O)n(C)c3nc12 [Compound I-12]	6259 RFU	> 30 µM	
Cc1cc(C)cc(-n2c(C)cn3c4c(=O)n(C)c(=O)n(C)c4nc23)c1 [Compound I-13]	6131 RFU	9 µM	
CCCn1c(=O)c2c(nc3n(-c4ccccc4C)c(C)cn23)n(C)c1=O [Compound I-14]	8875 RFU	18.9 µM	
C=CCn1c(=O)c2c(nc3n(-c4cccc(C)c4)c(C)c(C)n23)n(C)c1=O [Compound I-15]	5708 RFU	6.1 µM	
C=CCn1c(C)cn2c3c(=O)n(Cc4ccccc4C)c(=O)n(C)c3nc12 [Compound I-16]	6996 RFU	17.7 µM	
CCCn1c(=O)c2c(nc3n(-c4ccccc4OC)c(C)c(C)n23)n(C)c1=O [Compound I-17]	3733 RFU	8.8 µM	
CCCn1c(=O)c2c(nc3n(-c4ccccc4O)c(C)c(C)n23)n(C)c1=O [Compound I-18]	5235 RFU	7.1 µM	
C/C=C/Cn1c(=O)c2c(nc3n(-c4ccccc4O)c(C)c(C)n23)n(C)c1=O [Compound I-19]	2058 RFU	3.2 µM	
C=CCn1c(=O)c2c(nc3n(-c4ccccc4C)c(C)c(C)n23)n(C)c1=O [Compound I-20]	9362 RFU	3.8 µM	
C=CCn1c(C)cn2c3c(=O)n(Cc4cccc(C)c4)c(=O)n(C)c3nc12 [Compound I-21]	7073 RFU	9.4 µM	
C=CCn1c(C)cn2c3c(=O)n(Cc4ccc(F)cc4)c(=O)n(C)c3nc12 [Compound I-22]	8993 RFU	6.3 µM	
CCn1c(=O)c2c(nc3n(-c4cccc(Cl)c4C)c(C)cn23)n(C)c1=O [Compound I-23]	13290 RFU	10.5 µM	
CCCn1c(C)cn2c3c(=O)n(Cc4cccc(C)c4)c(=O)n(C)c3nc12 [Compound I-24]	5227 RFU	3.7 µM	
CCn1c(=O)c2c(nc3n(-c4ccccc4OC)c(C)c(C)n23)n(C)c1=O [Compound I-25]	6949 RFU	10.4 µM	
C=CCn1c(=O)c2c(nc3n(-c4ccc(OC)cc4)c(C)c(C)n23)n(C)c1=O [Compound I-26]	4090 RFU	3.1 µM	
C/C=C/Cn1c(=O)c2c(nc3n(CCCC)c(C)cn23)n(C)c1=O [Compound I-27]	8829 RFU	18.4 µM	
CCCCn1c(=O)c2c(nc3n(CCO)c(C)cn23)n(C)c1=O [Compound I-28]	1344 RFU	3 µM	
CCn1c(=O)c2c(nc3n(-c4cccc(OC)c4)c(C)c(C)n23)n(C)c1=O [Compound I-29]	10298 RFU	9.6 µM	

SMILES	ΔSPQ (difference between maximum and minimum SPQ values)	EC50	potency and efficacy compared with VX-809 in SPQ assay (versus VX-809)
CCn1c(=O)c2c(nc3n(C(C)c4ccccc4)c(C)cn23)n(C)c1=O (stereo not drawn) [Compound I-30]	18574 RFU	22.6 µM	
CCCn1c(=O)c2c(nc3n(CC(C)C)c(C)c(C)n23)n(C)c1=O [Compound I-31]	300 RFU	12.7 µM	
CCCn1c(=O)c2c(nc3n(Cc4ccco4)c(C)c(C)n23)n(C)c1=O [Compound I-32]	2989 RFU	3.3 µM	
CCc1ccc(-n2c(C)c(C)n3c4c(=O)n(CCCO)c(=O)n(C)c4nc23)cc1 [Compound I-33]	16061 RFU	18.9 µM	
CCCn1c(=O)c2c(nc3n(Cc4ccccc4)c(C)c(C)n23)n(C)c1=O [Compound I-34]	9486 RFU	4.6 µM	superior potency and efficacy to VX-809
CCn1c(=O)c2c(nc3n(-c4cccc(OC)c4)c(C)cn23)n(C)c1=O [Compound I-35]	13989 RFU	18.1 µM	
CCn1c(=O)c2c(nc3n(Cc4ccco4)c(C)c(C)n23)n(C)c1=O [Compound I-36]	3375 RFU	7.1 µM	
CCCn1c(=O)c2c(nc3n(C(C)CC)c(C)cn23)n(C)c1=O (stereo not drawn) [Compound I-37]	8170 RFU	10.7 µM	
C=CCn1c(=O)c2c(nc3n(CC(C)C)c(C)c(C)n23)n(C)c1=O [Compound I-38]	8563 RFU	7.8 µM	
Cc1cc(C)cc(-n2c(C)cn3c4c(=O)n(CCCO)c(=O)n(C)c4nc23)c1 [Compound I-39]	11432 RFU	13 µM	
CCOCCn1c(=O)c2c(nc3n2CCN3c2cc(C)ccc2C)n(C)c1=O [Compound I-40]	12347 RFU	9.5 µM	
Cc1c(C)n2c3c(=O)n(CCCO)c(=O)n(C)c3nc2n1-c1ccccc1 [Compound I-41]	11080 RFU	20.3 µM	
CCc1ccc(-n2c(C)cn3c4c(=O)n(CCCO)c(=O)n(C)c4nc23)cc1 [Compound I-42]	14593 RFU	19.7 µM	
C=CCn1c(=O)c2c(nc3n(C(C)c4ccccc4)c(C)c(C)n23)n(C)c1=O (stereo not drawn) [Compound I-43]	9439 RFU	3.4 µM	
Cc1c(C)n2c3c(=O)n(CC(C)C)c(=O)n(C)c3nc2n1Cc1ccco1 [Compound I-44]	9148 RFU	10 µM	
CCOCCn1c(=O)c2c(nc3n(-c4ccc(OC)cc4)c(C)c(C)n23)n(C)c1=O [Compound I-45]	5321 RFU	23.3 µM	
CCCCn1c(C)cn2c3c(=O)n(CC(=O)OC)c(=O)n(C)c3nc12 [Compound I-46]	5027 RFU	10.6 µM	
Cc1c(C)n2c3c(=O)n(CCCO)c(=O)n(C)c3nc2n1Cc1ccco1 [Compound I-47]	7294 RFU	10.6 µM	
Cc1c(C)n2c3c(=O)n(CCCO)c(=O)n(C)c3nc2n1CCc1ccccc1 [Compound I-48]	5300 RFU	3.3 µM	
CCC(C)n1c(C)c(C)n2c3c(=O)n(CC(=O)OC)c(=O)n(C)c3nc12 (stereo not drawn) [Compound I-49]	9652 RFU	9 µM	
Cc1c(C)n2c3c(=O)n(C/C=C/c4ccccc4)c(=O)n(C)c3nc2n1CCCO [Compound I-50]	3639 RFU	> 30 µM	
